Measurements taken from patent US20240277658A1, “NLRP3 ACTIVATORS FOR USE IN THE TREATMENT OF INFECTIOUS DISEASES OR CANCER BY ACTIVATING NLRP3 INFLAMMASOME” (ALBERT-LUDWIGS-UNIVERSITÄT FREIBURG, priority 2020, published 2024).
Where “and” joins values, the source holds several entries; their conditions need not be identical. Equal values may be shown once. Read-outs that look alike come from different tables or passages of the source.

How the values were obtained:
NLRP3 inflammasome = target: T1, NLRP3 inflammasome (Mus musculus, UniProt Q8R4B8); experiment: IL-1β release from LPS-primed BMDCs (ELISA) as readout of NLRP3 inflammasome activation; assay type: cell-based
T1 construct: endogenous in cells; host or cells: primary mouse bone marrow-derived dendritic cells (BMDCs), LPS-primed
T1 sequence (Q8R4B8 whole entry): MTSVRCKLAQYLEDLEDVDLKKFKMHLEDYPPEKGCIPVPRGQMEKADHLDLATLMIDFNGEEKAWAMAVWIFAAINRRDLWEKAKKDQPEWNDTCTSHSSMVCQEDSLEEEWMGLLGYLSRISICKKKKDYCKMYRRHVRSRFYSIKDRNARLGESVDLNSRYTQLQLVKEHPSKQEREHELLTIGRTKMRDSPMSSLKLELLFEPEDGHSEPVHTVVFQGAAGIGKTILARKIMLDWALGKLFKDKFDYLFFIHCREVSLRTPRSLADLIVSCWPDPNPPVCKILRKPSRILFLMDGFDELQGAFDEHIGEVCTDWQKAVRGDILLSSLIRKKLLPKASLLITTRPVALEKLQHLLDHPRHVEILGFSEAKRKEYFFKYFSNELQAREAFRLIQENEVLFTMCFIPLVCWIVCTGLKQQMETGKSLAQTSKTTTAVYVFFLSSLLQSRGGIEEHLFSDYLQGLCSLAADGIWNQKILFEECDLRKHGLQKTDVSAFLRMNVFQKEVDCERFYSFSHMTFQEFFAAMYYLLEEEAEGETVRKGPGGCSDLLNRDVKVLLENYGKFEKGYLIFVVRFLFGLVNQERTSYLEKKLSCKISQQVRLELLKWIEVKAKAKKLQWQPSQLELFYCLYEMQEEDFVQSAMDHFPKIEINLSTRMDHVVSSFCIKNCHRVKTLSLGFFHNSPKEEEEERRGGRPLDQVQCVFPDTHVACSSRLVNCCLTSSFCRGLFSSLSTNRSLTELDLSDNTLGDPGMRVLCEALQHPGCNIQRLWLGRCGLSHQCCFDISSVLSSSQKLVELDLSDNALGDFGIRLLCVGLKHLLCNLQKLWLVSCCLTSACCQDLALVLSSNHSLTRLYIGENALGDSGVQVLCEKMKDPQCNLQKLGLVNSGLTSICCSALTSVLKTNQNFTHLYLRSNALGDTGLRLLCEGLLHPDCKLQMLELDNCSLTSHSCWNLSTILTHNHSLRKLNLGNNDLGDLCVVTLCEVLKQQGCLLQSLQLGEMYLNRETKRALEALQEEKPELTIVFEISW
How it was run: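 NLRP3 inflammasome activation was read out as IL-1β released into the supernatant, measured by ELISA. Murine BMDCs were primed with LPS (50 ng ml^−1, 3 hours), then incubated with compounds for 3 hours, with each condition run in three technical replicates. Nigericin at 5 μM acted as the positive control activator, and IL-1β release was also expressed as a percentage of that control.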

BMDCs = experiment: LDH release (lytic cell death, pyroptosis) from LPS-primed BMDCs; assay type: cell-based, mouse; conditions: for Average (% positive control): LDH release; for cytotoxicity at 20 µM / cytotoxicity at 40 µM / cytotoxicity at 80 µM / cytotoxicity at 50 µM: Mus musculus, BMDC; for cytotoxicity at 50 µM: LPS-primed BMDCs
How it was run: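 Mouse BMDCs (7-9 days differentiated, GM-CSF) primed with 50 ng ml^−1 E. coli K12 LPS for 3 hours, then exposed 3 hours to compounds (50 μM unless indicated) or activators (nigericin 5 μM; R837, CL097 100 μM). Lytic death measured as LDH release by colorimetric assay, triplicate wells.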

NLRP3 = experiment: Inflammasome stimulation (IL-1β, LDH release) in BMDCs from NLRP3 knockout or ASC knockout mice; assay type: cell-based, mouse; conditions: IL-1β and LDH release
Experimental: For canonical inflammasome activation BMDCs after 7-9 days of differentiation were harvested and counted with a Neubauer Chamber (Hecht Assistant) and the concentration was set to 1 Mio cells ml^−1. 100 μl cell suspension per well were seeded in 96-well plates. The cells were primed with 50 ng ml^−1 E. coli K12 ultra-pure LPS for 3 hours and subsequently treated with canonical inflammasome activators or experimental compounds for 3 hours if not indicated differently (incubation time FIG. 4D, 5, 7, 8, 11, 13-18: 3 h, FIG. 12: 4 h). Concentrations of the stimuli were as follows if not indicated differently: 5 μM nigericin, 100 μM imiquimod (also known as R837), 100 μM CL097, 100 μM R848, […] poly(dA:dT), 300 μg ml^−1 MSU. If an inhibitor was used before stimuli treatment, the inhibitor was added after 2.5 hours of priming and it was incubated for 30 minutes before inflammasome activation. Inhibitors were used as follows: 3 μM MCC950, 45 mM KCl, 30 μM ebselen (2-Phenyl-1,2-benzoselenazol-3-one), 5 μM cytochalasin D (see FIGS. 8, 11, 12 and 17).
All inflammasome stimulations were performed in three technical replicates for each condition. Lytic cell death was determined via LDH release (see FIGS. 8, 13-16 and 18), cytokines quantified in cell-free supernatants via ELISA (see FIGS. 4D, 7-9, 11-19) and cell lysates and supernatants analyzed via immunoblotting (see FIGS. 5A and 5B) as previously described in detail (Gross, Olaf, 2012 “Measuring the inflammasome”, Methods in molecular biology, Clifton, N.J., 844, pp. 199-222. Schneider, Katharina S.; Thomas, Christina J.; Groß, Olaf, 2013, “Inflammasome activation and inhibition in primary murine bone marrow-derived cells, and assays for IL-1α, IL-1β, and caspase-1”, Methods in molecular biology, Clifton, N.J., 1040, pp. 117-135).

[1] = IL-1β release, compound 50 μM, positive control nigericin 5 μM
[2] = compound 50 μM, LPS-primed BMDCs
[3] = single replicates, compound 50 μM, LPS-primed BMDCs
[4] = compound 50 μM, positive control nigericin 5 μM
[5] = compound 50 μM, read-out: Average LDH release (% of max.)
[6] = single replicates, compound 50 μM, read-out: LDH release (% of max.)

SMILES	characteristics of inflammasome activation in cells isolated from NLRP3 knockout mice (NLRP3)	Average (% positive control) (NLRP3 inflammasome; [1])	Average IL-1β (NLRP3 inflammasome; [2])	IL-1β (NLRP3 inflammasome; [3])	Average (% positive control) (BMDCs; [4])	cytotoxicity at 50 µM (BMDCs; [5])	cytotoxicity at 50 µM (BMDCs; [6])	also measured
COc1ccc(NC(=O)Nc2ccc3ncccc3c2)cc1 [JB010, 1-(4-methoxyphenyl)-3-(quinolin-6-yl)urea]	do not occur							Average IL-1β (NLRP3 inflammasome; 20 μM): 2.404 ng/mL; IL-1β (NLRP3 inflammasome; 20 μM, individual replicate values): 2.200 ng/mL and 3.078 ng/mL and 1.934 ng/mL; Average IL-1β (NLRP3 inflammasome; 40 μM): 2.655 ng/mL; IL-1β (NLRP3 inflammasome; 40 μM, individual replicate values): 2.727 ng/mL and 2.742 ng/mL and 2.498 ng/mL; Average IL-1β (NLRP3 inflammasome; 80 μM): 3.966 ng/mL; IL-1β (NLRP3 inflammasome; 80 μM, individual replicate values): 2.757 ng/mL and 3.613 ng/mL and 5.527 ng/mL; Average (% positive control) (NLRP3 inflammasome; IL-1β, 20 μM, positive control EN22): 122.814 % positive control; Average (% positive control) (NLRP3 inflammasome; IL-1β, 40 μM, positive control EN22): 135.661 % positive control; Average (% positive control) (NLRP3 inflammasome; IL-1β, 80 μM, positive control EN22): 202.590 % positive control; Average (% positive control) (BMDCs; 20 μM, positive control EN22 20 μM): 44.689 % positive control; Average (% positive control) (BMDCs; 40 μM, positive control EN22 20 μM): 62.649 % positive control; Average (% positive control) (BMDCs; 80 μM, positive control EN22 20 μM): 77.427 % positive control; cytotoxicity at 20 µM (BMDCs; 20 μM, individual replicate values, read-out: LDH release (% of max.)): 24.4%; cytotoxicity at 20 µM (BMDCs; 20 μM, read-out: Average LDH release (% of max.)): 23.8%; cytotoxicity at 40 µM (BMDCs; 40 μM, individual replicate values, read-out: LDH release (% of max.)): 31.4%; cytotoxicity at 40 µM (BMDCs; 40 μM, read-out: Average LDH release (% of max.)): 33.4%; cytotoxicity at 80 µM (BMDCs; 80 μM, individual replicate values, read-out: LDH release (% of max.)): 38.6%; cytotoxicity at 80 µM (BMDCs; 80 μM, read-out: Average LDH release (% of max.)): 41.2%
COCCNC(=O)c1cc(-c2ccn(C3CCCC3)n2)n2ccccc12 [EN54]	do not occur							
O=C1CN(c2ccccc2)C(=O)N1Cc1nc(-c2cccs2)no1 [L01.089, 1-phenyl-3-{[3-(thio-phen-2-yl)-1,2,4-oxadiazol-5-yl]meth-yl}imidazolidine-2,4-dione]		4.526 % positive control	0.324 ng/mL	0.313 ng/mL and 0.316 ng/mL and 0.344 ng/mL	10.402 % positive control	7.61%	8.67%	
CNC(=O)NCc1cccc(NC(=O)Nc2ccccc2)c1 [L01.132, 3-(3-{[(methylcarbamo-yl)amino]methyl}phen-yl)-1-phenylurea]		0.920 % positive control	0.066 ng/mL	0.062 ng/mL and 0.066 ng/mL and 0.069 ng/mL	8.791 % positive control	6.43%	6.46%	
O=C(Nc1ccccc1)Nc1cccc(NC(=O)C2CC2)c1 [L01.084, N-{3-[(phenylcarbamo-yl)amino]phenyl}cyclo-propanecarboxamide]		1.362 % positive control	0.098 ng/mL	0.083 ng/mL and 0.111 ng/mL and 0.099 ng/mL	8.054 % positive control	5.89%	6%	
Cc1ccc(NC(=O)Nc2ccccc2)cc1F [L01.124, 3-(3-fluoro-4-methyl-phenyl)-1-phenylurea]		13.268 % positive control	0.951 ng/mL	0.928 ng/mL and 0.902 ng/mL and 1.024 ng/mL	19.235 % positive control	14.1%	14.1%	
